Reference: patent US20210128537A1, “T-TYPE CALCIUM CHANNEL MODULATORS AND METHODS OF USE THEREOF” (Praxis Precision Medicines, inc., priority 2016, published 2021)

Experiments:
hCaV3.2 = hCaV3.2 (Homo sapiens, UniProt O95180); experiment: Inactivated channel state FLIPR assay, concentration-dependent inhibition of hCaV3.2; format: cell-based; settings: logistic function fit
GAERS nRT neuron = experiment: Thalamic slice current-clamp recordings, burst firing in nRT neurons; format: cell-based, rat; settings: 1 mM Z944; for voltage response to depolarizing current, low threshold spiking: in 600 nM TTX
Naïve wistar rats = experiment: Drug tolerability study, seven-day osmotic pump; format: in vivo, rat
Procedure: (§1) Pumps were filled with either Z944 to deliver a daily dose of 60 mg/kg, levetiracetam to deliver a daily dose of 200 mg/kg or vehicle. For the drug tolerability study, osmotic pumps continuously either Z944, levetiracetam or vehicle for 7 days and for the post-SE study osmotic pumps delivered continuously the different treatments for 28 days.
The neurological side effects of the prolonged administration of Z944 and levetiracetam were assessed over one-week. Naïve wistar rats aged 11 weeks were implanted with a seven-day osmotic pump with Z944 (60 mg/kg/day, n=6), levetiracetam (200 mg/kg/day, n=5) and vehicle (n=6). The animals were evaluated twice per day, morning and afternoon, for side effects from the day of pump implantation to 8 days after.

post-SE rats [1] = experiment: Kainic acid induced post-status epilepticus model, video-EEG seizure analysis; format: in vivo, rat
Procedure: as §1
FIG. 11 summarizes the different methods used on this experimental paradigm.
Animals were implanted with subdural EEG recording electrodes and one week after surgery, the animals were connected using cables that allowed them free movement around their cage. A repeated low dose KA administration protocol was used. Rats were injected i.p. with an initial dose of KA 7.5 mg/kg plus 3 ml of normal saline to prevent dehydration. Animals were monitored for 45 minutes for EEG and behavioural seizures based on the Racine scale. […] This was repeated up to 2 times every 45 minutes. An animal was eliminated from the experiment if it didn't show a stable self-sustained SE after a maximum KA total dose of 15 mg/kg. Two sham groups were treated identically but received saline injections instead of KA. After four hours of sustained electroencephalographic and behavioural seizures the animals were randomly allocated to one of the five treatment groups: sham+vehicle (n=6), sham+Z944 (n=6), post-SE+vehicle (n=8), post-SE+Z944 (n=8), post-SE+levetiracetam (n=9).
Animals were anesthetized and implanted with subcutaneous osmotic pumps containing either vehicle Z944 (60 mg/kg/day), or levetiracetam (200 mg/kg/day) that delivered the treatment continuously for 4 weeks. Immediately after the pump implantation, SE was stopped with diazepam (5 mg/kg/dose).
vEEG recordings commenced at least 4 h prior the induction of SE to provide baseline recordings. The video-EEG recordings continued for the whole duration of the treatment period, i.e. four weeks after the termination of the SE. […] EEG analysis was performed in a blinded manner and confirmed by two different observers. All EEG recordings were visually and manually annotated using Profusion 3 software. A seizure was defined as an episode of rhythmic spiking activity that was three times the baseline amplitude and a frequency >5 Hz that lasted at least 10 s. The end of a seizure was determined as the last spike. The average number of seizures per day, average seizure duration and seizure class (severity) were analysed.

post-SE rats [2] = experiment: Sucrose preference test in post-SE rats; format: in vivo, rat; settings: Z944 60 mg/kg/day for 4 weeks, p<0.05
Procedure: All behavioural tests were performed in a light-controlled (˜110 lux), closed, quiet and clean room in the. Behavioural testing was performed in a blinded manner to the treatment groups. All of the behavioural tests were video recorded for future analysis. OF, EPM and MWM sessions were filmed using a digital camera mounted above the centre of the arena, which was connected to a computer for the recording and objective analysis of digitized behavioural tests (EthoVision 3.0.15, Noldus). The first behavioural test was performed one week after the last EEG recording. The different behavioural tests/session were performed 24 hours apart from each other. All tests were scored by an experienced observer who was blind to the experimental conditions of the animals.
The SPT was used to assess depressive-like behaviour. The animals remained to stay in their same home cage. One hour before the start of the test, the animals were given up to 0.5 ml of the testing 2% sucrose to ensure that the animals would drink the sucrose solution. The animals were presented with two bottles, one filled with water and the other one filled with 2% sucrose in water for 24 hours. On both tests, bottle position was randomised to avoid position preference. Total fluid intake and percentage preference for sucrose were recorded.

[3] = system: T-type calcium channels (CaV3.1, CaV3.2, CaV3.3) mRNA; experiment: Quantitative PCR of T-type Ca2+ channel expression in the hippocampus of post-SE rats; format: in vivo, rat; settings: 9 weeks after treatment ended
Procedure: RNA was extracted using the RNeasy Mini Kit (QIAGEN), DNA elimination columns were used to remove any genomic DNA contamination in accordance with the manufacturer's protocol. RNA concentration and purity was determined using spectrophotometric readings with the NanoDrop 3000 spectrophotometer (NanoDrop Technologies). 1 μg RNA was reverse transcribed to cDNA using the Omniscript RT Kit (QIAGEN) following the manufacturer's protocol. T-type Ca^2+ channel expression was assessed using quantitative polymerase chain reaction (qPCR). Each 10 μl reaction volume consisted in 25 ng of cDNA, 5 μl of TaqMan Universal PCR Master Mix 2× and custom designed TaqMan using catalogued 20× Taqman gene expression assays for CaV3.1 (Assay ID Rn00581051_m1, Applied Biosystems), CaV3.2 (Assay ID Rn01460348_m1, Applied Biosystems), CaV3.3 (Assay ID Rn01505208_m1, Applied Biosystems). Relative mRNA expression of the CaV3.1, CaV3.2 and CaV3.3 were compared to the geometric average of the mRNA levels of the housekeeping genes Rplp1 (Rn03467157_gH), Rpl13a (Rn00821946_g1) and Ywhaz (Assay ID: Rn00755072_m1). Analysis was performed using the ΔΔCT method. The average of the relative expression levels was compared between the different treatment groups.

Chain of hCaV3.2 (O95180 whole entry): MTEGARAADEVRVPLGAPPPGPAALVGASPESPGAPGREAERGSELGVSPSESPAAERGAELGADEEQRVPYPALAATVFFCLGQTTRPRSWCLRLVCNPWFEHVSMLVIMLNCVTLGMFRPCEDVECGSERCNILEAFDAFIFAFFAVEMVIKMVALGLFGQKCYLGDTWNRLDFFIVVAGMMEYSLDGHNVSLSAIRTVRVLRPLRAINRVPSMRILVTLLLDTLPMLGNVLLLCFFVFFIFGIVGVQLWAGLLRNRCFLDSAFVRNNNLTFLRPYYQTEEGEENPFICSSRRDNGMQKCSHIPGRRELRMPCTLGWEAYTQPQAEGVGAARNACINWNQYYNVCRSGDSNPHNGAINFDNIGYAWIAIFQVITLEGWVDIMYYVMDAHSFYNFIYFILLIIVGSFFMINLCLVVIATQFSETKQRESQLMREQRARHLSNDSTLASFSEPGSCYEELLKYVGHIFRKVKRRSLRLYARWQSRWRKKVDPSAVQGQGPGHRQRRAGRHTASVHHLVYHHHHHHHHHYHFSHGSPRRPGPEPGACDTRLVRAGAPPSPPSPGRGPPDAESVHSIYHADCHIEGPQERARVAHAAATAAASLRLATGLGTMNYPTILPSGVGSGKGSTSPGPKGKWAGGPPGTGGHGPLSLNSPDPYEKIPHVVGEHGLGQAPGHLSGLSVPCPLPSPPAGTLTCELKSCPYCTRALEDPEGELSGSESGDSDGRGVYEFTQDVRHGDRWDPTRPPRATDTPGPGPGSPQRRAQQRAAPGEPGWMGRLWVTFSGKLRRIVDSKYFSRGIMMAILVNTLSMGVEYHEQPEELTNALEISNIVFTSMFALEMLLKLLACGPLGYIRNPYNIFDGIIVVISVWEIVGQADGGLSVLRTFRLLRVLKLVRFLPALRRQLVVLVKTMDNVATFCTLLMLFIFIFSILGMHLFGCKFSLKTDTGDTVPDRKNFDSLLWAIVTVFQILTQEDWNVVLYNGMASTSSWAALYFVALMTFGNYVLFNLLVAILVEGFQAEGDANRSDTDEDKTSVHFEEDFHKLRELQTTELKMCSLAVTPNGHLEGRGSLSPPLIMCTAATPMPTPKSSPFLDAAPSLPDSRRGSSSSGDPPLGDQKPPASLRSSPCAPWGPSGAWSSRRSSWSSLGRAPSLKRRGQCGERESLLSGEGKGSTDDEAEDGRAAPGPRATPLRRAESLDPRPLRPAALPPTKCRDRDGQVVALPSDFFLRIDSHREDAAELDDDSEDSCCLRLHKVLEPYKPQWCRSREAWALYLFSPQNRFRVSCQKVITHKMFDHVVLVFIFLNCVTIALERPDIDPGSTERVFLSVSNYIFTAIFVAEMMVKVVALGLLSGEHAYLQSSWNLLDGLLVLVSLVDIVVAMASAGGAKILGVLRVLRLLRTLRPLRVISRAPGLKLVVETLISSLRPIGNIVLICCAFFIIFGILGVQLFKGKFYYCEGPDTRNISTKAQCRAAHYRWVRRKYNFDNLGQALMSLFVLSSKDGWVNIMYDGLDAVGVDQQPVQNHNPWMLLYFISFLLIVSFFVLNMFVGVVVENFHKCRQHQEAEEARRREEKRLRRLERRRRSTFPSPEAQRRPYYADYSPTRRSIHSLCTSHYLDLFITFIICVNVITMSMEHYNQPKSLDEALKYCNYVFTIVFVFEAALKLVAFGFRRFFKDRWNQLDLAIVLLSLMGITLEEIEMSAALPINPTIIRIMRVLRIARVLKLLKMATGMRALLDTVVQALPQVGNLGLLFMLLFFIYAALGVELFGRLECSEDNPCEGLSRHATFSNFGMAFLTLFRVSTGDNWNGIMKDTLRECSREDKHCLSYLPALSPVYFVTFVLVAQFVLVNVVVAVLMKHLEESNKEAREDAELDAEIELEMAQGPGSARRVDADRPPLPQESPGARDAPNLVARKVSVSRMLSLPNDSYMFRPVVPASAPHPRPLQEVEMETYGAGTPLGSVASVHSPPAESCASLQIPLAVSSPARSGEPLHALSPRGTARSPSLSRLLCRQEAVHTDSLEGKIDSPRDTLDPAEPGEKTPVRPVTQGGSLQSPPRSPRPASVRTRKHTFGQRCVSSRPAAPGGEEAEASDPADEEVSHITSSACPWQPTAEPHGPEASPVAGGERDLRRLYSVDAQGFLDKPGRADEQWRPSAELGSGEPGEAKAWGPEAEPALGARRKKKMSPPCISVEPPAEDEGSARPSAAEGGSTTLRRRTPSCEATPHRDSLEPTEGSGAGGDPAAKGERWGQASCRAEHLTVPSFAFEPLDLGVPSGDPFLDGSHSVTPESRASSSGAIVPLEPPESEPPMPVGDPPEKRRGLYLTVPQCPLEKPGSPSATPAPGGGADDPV

CC(C)(C)NC(=O)CN1CCC(CNC(=O)c2cc(F)cc(Cl)c2)CC1 [Z944]
slope of the concentration-inhibition curve (hCaV3.2): 1.5 | voltage response to depolarizing current, burst firing (GAERS nRT neuron; +80 pA (threshold for burst firing in control)): subthreshold for firing | voltage response to depolarizing current, low threshold spiking (GAERS nRT neuron; +100 pA): subthreshold for low-threshold spiking | voltage response to depolarizing current, burst firing (GAERS nRT neuron; +120 pA (suprathreshold for burst firing in control)): threshold for tonic firing | voltage response to depolarizing current, low threshold spiking (GAERS nRT neuron; +190 pA (suprathreshold in control)): still subthreshold | neurological side effects in comparison to vehicle (Naïve wistar rats; 60 mg/kg/day osmotic pump, day 2 to day 5): transient and minimal side effects | neurological side effects compared to levetiracetam treated animals (Naïve wistar rats; Z944 60 mg/kg/day vs levetiracetam 200 mg/kg/day, day 2 and 3, p<0.05): significantly reduced neurological side effects | seizures on EEG after drug washout (seizures per day, duration, severity) (post-SE rats [1]; 60 mg/kg/day for 4 weeks, EEG after 4 weeks from drug washout): Anti-Epileptogenic | seizures on EEG during treatment (seizures per day, duration, severity) (post-SE rats [1]; 60 mg/kg/day, during the 4 weeks of continuous treatment after SE): Anti-Epileptogenic Effects | number of seizures in each animal that developed seizures (post-SE rats [1]; in two weeks of vEEG after drug washout): one | neurological adverse effects after prolonged treatment (post-SE rats [1]; osmotic pump 4 weeks, Z944 60 mg/kg/day, levetiracetam 200 mg/kg/day): only transient and minor neurological adverse effects | treated animals that developed seizures (post-SE rats [1]; two weeks of vEEG after 4 weeks drug washout, n=8): two of the eight | sucrose preference (post-SE rats [2]): vehicle had a reduced sucrose preference compared to both sham groups and post-SE+Z944 group | mRNA expression of T-type calcium channels in the hippocampus [3]: Reduced mRNA Expression
